Measured values taken from PMC11983102, “Conjugation to a transferrin receptor 1-binding Bicycle peptide enhances ASO and siRNA potency in skeletal and cardiac muscles” (Nucleic Acids Research, 2025).
Numbered stars: 1 amine (or outer) side, 2 acyl side, 3 side chain; on linkers, the order of the positions; unused ones are H or OH. Bridge positions count the residues as written; N and C are the ends. Peptide text beside a SMILES is read from it. TATB = O=C(C[*:1])N1CN(C(=O)C[*:2])CN(C(=O)C[*:3])C1

Columns and labels:
Mouse plasma stability = assay type: in vitro ADME
Method: An alanine scan was performed to identify core residues involved in binding to the protein and solvent-facing residues which could be used to tune molecular properties, followed by substitutions with non-natural amino acids to identify suitable replacements at each position. In addition, peptides were synthesized to investigate the removal of the N- and C-terminal alanines, capping the N-terminal with an acetyl group, and to examine the effects of combinations with N- and C-terminal extensions. Affinity was measured using either SPR or fluorescence polarization (FP) assays, and plasma stability in mouse was determined for selected examples. Series of analogues with the azidolysine (K(N3)) or azidopropanoic acid (AzPro) were prepared on the C- and N-terminal of the Bicycle molecules, respectively. These were used to conjugate to an ASO or siRNA for further profiling.

human TfR1 = molecular target: T1, human TfR1 (Homo sapiens, UniProt P02786); assay: SPR binding of Bicycle peptides and conjugates to human TfR1; settings: SPR (Biacore), human TfR1 captured on SA chip, 5-point single cycle kinetics, PBS-P+ 1% DMSO pH 7.4; geometric mean; unconjugated Bicycle peptides
T1 construct: received from Bicycle Therapeutics as His6-tagged TfR1 (a.a. 89-760) (ACROBiosystems, CD1-H5243 and TfR-C524a); His6; purchased ACROBiosystems CD1-H5243
T1 sequence (P02786 89-760): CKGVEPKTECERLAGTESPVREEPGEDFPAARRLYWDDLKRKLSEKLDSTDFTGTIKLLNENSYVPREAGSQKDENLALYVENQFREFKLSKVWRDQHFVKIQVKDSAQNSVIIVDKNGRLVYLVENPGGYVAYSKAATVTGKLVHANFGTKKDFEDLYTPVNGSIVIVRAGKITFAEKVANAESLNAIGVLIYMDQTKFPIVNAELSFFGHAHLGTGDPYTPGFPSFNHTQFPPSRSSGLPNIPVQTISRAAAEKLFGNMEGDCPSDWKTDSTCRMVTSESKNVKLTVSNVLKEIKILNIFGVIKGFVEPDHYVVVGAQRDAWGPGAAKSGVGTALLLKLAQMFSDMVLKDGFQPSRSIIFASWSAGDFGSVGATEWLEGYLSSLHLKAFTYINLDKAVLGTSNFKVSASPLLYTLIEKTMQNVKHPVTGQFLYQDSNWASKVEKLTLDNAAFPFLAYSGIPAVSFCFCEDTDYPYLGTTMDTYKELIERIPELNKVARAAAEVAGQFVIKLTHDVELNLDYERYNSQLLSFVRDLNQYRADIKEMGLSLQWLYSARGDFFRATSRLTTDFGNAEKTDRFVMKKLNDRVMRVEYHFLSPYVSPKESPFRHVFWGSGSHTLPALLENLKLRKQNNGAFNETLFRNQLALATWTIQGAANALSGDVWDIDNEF
Method: Biacore experiments were performed to determine ka (M^-1s^-1), kd (s^-1), KD (nM) values of various peptides binding to TfR1. […] SPR binding analysis was performed on Biacore T200 and Biacore 8K+ (Cytiva). Human TfR1 and randomly biotinylated cynomolgus monkey TfR1 were captured on Series S Sensor Chip SA (BR100531, Cytiva) at levels of approximately 1000 RU. Using an appropriate top concentration, Bicycle peptides were screened in a 5-point titration curve in single cycle kinetics format at 30 ml/minute. The running buffer was PBS-P^+, 1% DMSO at pH 7.4. The data was solvent-corrected for DMSO bulk effects. In addition, all data was double corrected against the reference flow cell and matched buffer blanks. Data processing and kinetic fitting were performed using Biacore T200 Evaluation Software or Biacore Insight Evaluation. The data was fitted using the 1:1 binding model or steady-state affinity model where appropriate. The geometric mean (geomean) KD (nM) for binders was calculated by transforming unique KD values by log10, arithmetic-mean-averaging the transformed values, and subsequently anti-log-transforming the averaged value.

SMILES | half-life (Mouse plasma stability) | Kd (human TfR1)
CC[C@H](C)[C@@H]1NC(=O)[C@@H]2CSCC(=O)N3CN(CN(C3)C(=O)CSC[C@H](NC(C)=O)C(=O)N[C@@H](CO)C(=O)N3CCC[C@H]3C(=O)N[C@@H](CC(=O)O)C(=O)N[C@@H](C)C(=O)N[C@@H](Cc3c[nH]cn3)C(=O)N[C@@H](CC(C)C)C(=O)NCC(=O)N2)C(=O)CSC[C@@H](C(N)=O)NC(=O)[C@H](Cc2ccc(O)cc2)NC(=O)[C@H](CO)NC1=O [BCY15891] (Ac-CSPDAHLGCISYC-NH2; linker 1-9-13 via TATB) | 1360 min | –
CC[C@H](C)[C@@H]1NC(=O)[C@@H]2CSCC(=O)N3CN(CN(C3)C(=O)CSC[C@@H](C(=O)N[C@@H](C)C(N)=O)NC(=O)[C@H](Cc3cccc4ccccc34)NC(=O)[C@H](CO)NC1=O)C(=O)CSC[C@H](NC(=O)[C@H](C)N)C(=O)N[C@@H](CO)C(=O)N1CCC[C@H]1C(=O)N[C@@H](CC(=O)O)C(=O)N[C@@H](C)C(=O)N[C@@H](Cc1c[nH]cn1)C(=O)N[C@@H](CC(C)C)C(=O)NCC(=O)N2 [compound 16029] | – | 60 nM
CC[C@H](C)[C@@H]1NC(=O)[C@@H]2CSCC(=O)N3CN(CN(C3)C(=O)CSC[C@@H](C(=O)N[C@@H](C)C(N)=O)NC(=O)[C@H](Cc3ccc(O)cc3)NC(=O)[C@H](CO)NC1=O)C(=O)CSC[C@H](NC(=O)[C@H](C)N)C(=O)N[C@@H](CO)C(=O)N1C[C@H](O)C[C@H]1C(=O)N[C@@H](CC(=O)O)C(=O)N[C@@H](C)C(=O)N[C@@H](Cc1c[nH]cn1)C(=O)N[C@@H](CC(C)C)C(=O)NCC(=O)N2 [compound 16047] | – | 49 nM
CC[C@H](C)[C@@H]1NC(=O)[C@@H]2CSCC(=O)N3CN(CN(C3)C(=O)CSC[C@@H](C(=O)N[C@@H](C)C(N)=O)NC(=O)[C@H](Cc3ccc(O)cc3)NC(=O)[C@H](CO)NC1=O)C(=O)CSC[C@H](NC(=O)[C@H](C)N)C(=O)N[C@@H](CO)C(=O)N1CCC[C@H]1C(=O)N[C@@H](CC(=O)O)C(=O)N[C@@H](C)C(=O)N[C@@H](Cc1c[nH]cn1)C(=O)N[C@@H](CC(C)C)C(=O)NCC(=O)N2 [BCY15468] | – | 143 nM
CC[C@H](C)[C@@H]1NC(=O)[C@@H]2CSCC(=O)N3CN(CN(C3)C(=O)CSC[C@@H](C(=O)N[C@@H](C)C(N)=O)NC(=O)[C@H](Cc3ccc4ccccc4c3)NC(=O)[C@H](CO)NC1=O)C(=O)CSC[C@H](NC(=O)[C@H](C)N)C(=O)N[C@@H](CO)C(=O)N1CCC[C@H]1C(=O)N[C@@H](CC(=O)O)C(=O)N[C@@H](C)C(=O)N[C@@H](Cc1c[nH]cn1)C(=O)N[C@@H](CC(C)C)C(=O)NCC(=O)N2 [compound 16031] | – | 68 nM
